According to article PMC5084024, “The Identification of Biochanin A as a Potent and Selective β-Site App-Cleaving Enzyme 1 (Bace1) Inhibitor” (Nutrients, 2016):

Biological target: T1, BACE1 (β-site APP-cleaving enzyme 1) (Homo sapiens, UniProt P56817)
T1 construct: human recombinant BACE1, baculovirus-expressed
Experiment: FRET enzyme assay with recombinant BACE1; Dixon and Lineweaver-Burk kinetics (Ki […])
Type: biochemical

T1 sequence (P56817 46-457): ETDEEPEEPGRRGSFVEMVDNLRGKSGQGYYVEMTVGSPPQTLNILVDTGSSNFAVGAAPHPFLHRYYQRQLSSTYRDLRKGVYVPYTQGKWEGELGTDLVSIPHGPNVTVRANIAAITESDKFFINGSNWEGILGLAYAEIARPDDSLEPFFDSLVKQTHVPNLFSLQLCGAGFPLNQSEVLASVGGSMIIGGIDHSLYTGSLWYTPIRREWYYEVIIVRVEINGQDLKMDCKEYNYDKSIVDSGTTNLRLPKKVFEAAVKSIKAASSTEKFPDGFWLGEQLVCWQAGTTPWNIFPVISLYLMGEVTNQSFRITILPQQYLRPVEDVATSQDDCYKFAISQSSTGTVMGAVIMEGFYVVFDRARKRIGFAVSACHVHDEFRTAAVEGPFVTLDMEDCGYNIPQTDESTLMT

COc1ccc(-c2coc3cc(O)cc(O)c3c2=O)cc1 [Biochanin A, 5,7-dihydroxy-3-(4-methoxyphenyl)chromen-4-one]
IC50: 28 µM
